Source: patent EP1975159A1, “2,3,4,9-Tetrahydro-1H-carbazoles” (Bayer Schering Pharma Aktiengesellschaft, priority 2007, dated 2008)

The molecules below were run against T1, human FSH receptor (Homo sapiens, UniProt P23945) (assay: HTRF assay for measuring cAMP in cells (FSH antagonism)). Details: FSH-antagonistic effect; CHO cells stably transfected with the human FSH receptor (hFSHR clone 16); in the presence of 1 e-9 mol/l hFSH; 37°C for 2h.
T1 construct: expressed in transfected cells; host or cells: CHO cells (hFSHR clone 16)
T1 sequence (P23945 18-695): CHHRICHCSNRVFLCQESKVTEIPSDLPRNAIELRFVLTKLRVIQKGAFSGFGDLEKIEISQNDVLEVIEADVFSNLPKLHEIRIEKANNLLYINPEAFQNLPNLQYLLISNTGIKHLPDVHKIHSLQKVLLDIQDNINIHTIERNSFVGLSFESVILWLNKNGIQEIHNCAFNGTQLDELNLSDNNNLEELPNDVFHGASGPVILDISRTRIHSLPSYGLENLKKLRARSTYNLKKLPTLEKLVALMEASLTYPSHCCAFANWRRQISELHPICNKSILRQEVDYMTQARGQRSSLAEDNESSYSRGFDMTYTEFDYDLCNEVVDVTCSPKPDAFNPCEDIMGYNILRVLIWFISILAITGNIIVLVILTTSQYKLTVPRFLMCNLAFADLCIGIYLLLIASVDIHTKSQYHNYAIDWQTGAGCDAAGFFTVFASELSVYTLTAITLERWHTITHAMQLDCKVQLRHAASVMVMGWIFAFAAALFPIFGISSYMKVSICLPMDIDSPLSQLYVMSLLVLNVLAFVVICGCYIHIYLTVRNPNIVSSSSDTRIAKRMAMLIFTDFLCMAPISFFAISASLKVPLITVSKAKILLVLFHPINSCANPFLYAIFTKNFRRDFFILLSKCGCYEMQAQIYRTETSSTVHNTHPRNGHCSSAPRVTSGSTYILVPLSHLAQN
Type: cell-based
Protocol: HTRF assay for measuring cAMP in cells
The method is based on a competitive immunoassay between native cAMP, which has been produced by the cells, and cAMP which is labelled with XL665. The tracer binding was visualized by a monoclonal antibody, anti-cAMP labelled with cryptate [HTRF = homogeneous time-resolved fluorescence].
The specific signal is inversely proportional to the cAMP concentration of the samples employed.
The 665nm/ 620nm fluorescence ratio was evaluated.
The following material was used: 96-well plates for the tissue culture, 96-well plates with black edge and black base (e.g. Fluotrac 600 from Greiner), 96-well plates for the substance dilutions of polypropylene and cAMP Femtomolar (4000wells Kit, CIS Bio International # 62AM1PEC).
The following reagents were used: BSA (bovine serum albumin) Fraction V protease-free, IBMX (3-isobutyl-1-methylxanthine), hFSH (human follicle stimulating hormone), Triton X-100 analytical grade, potassium fluoride analytical grade, G 418 (Geneticin) and Accutase.
Buffer 1 (washing and testing buffer) contained PBS, 1 mM CaCl2, 1 mM MgCl2, 0.2% glucose; 0.1% BSA, 1 mM IBMX.
Buffer 2 (2x lysis buffer) contained 1% Triton X-100 in PBS (without CaCl2 and MgCl2).
Buffer 3 (assay buffer) contained 50 mM potassium phosphate buffer (pH 7.0); 800 mM potassium fluoride; 0.2% BSA (always added fresh).
On day 1, the cells were seeded in 96-well plates (3x10^4 cells per well hFSHR clone 16 cells (CHO cells stably transfected with the human FSH receptor in 150 µl of medium). The next day, test substance dilutions were made up. For this purpose, all the substances were diluted in ice-cold buffer 1 (with or without hFSH), and the substance dilutions were placed on ice until applied to the cells.
The cell supernatant was then aspirated off, and the cells were washed 2x with 200 µl of buffer 1. The cells were treated with 60 µl of the appropriate substance concentrations at 37°C for 2h. The cells were then lysed with 60 µl of buffer 2 (put onto the supernatant) (on a plate shaker at RT for 30 min).
The test conjugates (XL-665 and anti-cAMP cryptate) were diluted in buffer 3 in accordance with the manufacturers' information. The actual mixture for measurement was pipetted into a black 96-well plate (in each case 15 µl of the cell lysate diluted with 35 µl of buffer 1; firstly 25 µl of XL-665 conjugate were pipetted and, after 10 min, 25 µl of the anti-cAMP cryptate were added). This is followed by incubation at RT for 90 minutes. The measurement was carried out in a PheraStar (BMG).
Tissue culture conditions
• 1) hFSHr clone 16 Ham's F12 PSG 10% FCS 700 µg/ml G 418 (Geneticin) from PAA.
Dose-effect curve (hFSH) for the human receptor: 1 e-8, 3e-9, 1 e-9, 3e-10, 1 e-1 0, 3e-11, 1 e-11, 3e-12 mol/l.
The test substances were employed in suitable dilutions in the absence (test for agonism) and in the presence of 1 e-9 mol/l hFSH.
The values of the well ratio were averaged and then entered directly in SigmaPlot versus the concentrations. The maximum and minimum values were determined for each plate, and half the difference is to be regarded as IC50.

SMILES | IC50 [µM]
COc1ccc2nc(-c3ccccc3)cc(C(=O)NC3(CO)CCc4[nH]c5cc(Cl)c(F)cc5c4C3)c2c1 (centres unmarked) [Example 13, 6-Methoxy-2-phenyl-quinoline-4-carboxylic acid (7-chloro-6-fluoro-3-hydroxymethyl-2,3,4,9-tetrahydro-1 H-carbazol-3-yl)-amide] | 8
CNC(=O)c1ccc(-c2ccc(OC(C)C)c(C(=O)NC3(CO)CCc4[nH]c5c(Cl)ccc(Cl)c5c4C3)c2)cc1Cl (centres unmarked) [Example 25, 3'-Chloro-4-isopropoxy-biphenyl-3,4'-dicarboxylic acid 3-[(5,8-dichloro-3-hydroxymethyl-2,3,4,9-tetrahydro-1 H-carbazol-3-yl)-amide] 4'-methyl-amide] | 0.9
CNC(=O)c1ccc(-c2ccc(OC(C)C)c(C(=O)NC3(CO)CCc4[nH]c5ccc(Cl)cc5c4C3)c2)cc1Cl (centres unmarked) [Example 34, 3'-Chloro-4-isopropoxy-biphenyl-3,4'-dicarboxylic acid 3-[(6-chloro-3-hydroxymethyl-2,3,4,9-tetrahydro-1 H-carbazol-3-yl)-amide] 4'-methylamide] | 1.5
Cc1ccc2[nH]c3c(c2c1Cl)CC(CO)(NC(=O)c1cc(-c2cc4ccccc4o2)ccc1OC(C)C)CC3 (centres unmarked) [Example 40, 5-Benzofuran-2-yl-N-(5-chloro-3-hydroxymethyl-6-methyl-2,3,4,9-tetrahydro-1H-carbazol-3-yl)-2-isopropoxy-benzamide] | 0.75

Other lines, results leading:

IC50 [µM] | SMILES
4 | COc1ccc(-c2ccc(OC(C)C)c(C(=O)NC3(CO)CCc4[nH]c5c(C)ccc(C)c5c4C3)c2)cc1OC (centres unmarked) [Example 19, 4-Isopropoxy-3',4'-dimethoxy-biphenyl-3-carboxylic acid (3-hydroxymethyl-5,8-dimethyl-2,3,4,9-tetrahydro-1H-carbazol-3-yl)-amide]
0.2 | CNC(=O)c1ccc(-c2ccc(OC(C)C)c(C(=O)NC3(CO)CCc4[nH]c5c(Cl)cccc5c4C3)c2)cc1Cl (centres unmarked) [Example 30, 3'-Chloro-4-isopropoxy-biphenyl-3,4'-dicarboxylic acid 3-[(8-chloro-3-hydroxymethyl-2,3,4,9-tetrahydro-1H-carbazol-3-yl)-amide] 4'-methylamide]
3 | CNC(=O)c1ccc(-c2ccc(OC(C)C)c(C(=O)NC3(CO)CCc4[nH]c5ccc(C)cc5c4C3)c2)cc1Cl (centres unmarked) [Example 32, 3'-Chloro-4-isopropoxy-biphenyl-3,4'-dicarboxylic acid 3-[(3-hydroxymethyl-6-methyl-2,3,4,9-tetrahydro-1H-carbazol-3-yl)-amide] 4'-methylamide]
0.07 | CNC(=O)c1ccc(-c2ccc(OC(C)C)c(C(=O)NC3(CO)CCc4[nH]c5ccc(F)cc5c4C3)c2)cc1Cl (centres unmarked) [Example 33, 3'-Chloro-4-isopropoxy-biphenyl-3,4'-dicarboxylic acid 3-[(6-fluoro-3-hydroxymethyl-2,3,4,9-tetrahydro-1H-carbazol-3-yl)-amide] 4'-methylamide]
